The results in this text go back to patent US6525059B1, “Substituted pyrazoles as p38 kinase inhibitors” (G. D. Searle & Company, priority 1998, dated 2003).

For one experiment, the target named is T1, human p38 kinase alpha (Homo sapiens, UniProt Q16539).
T1 construct: The coding region of the human p38a cDNA was obtained by PCR-amplification from RNA isolated from the human monocyte cell line THP.1; GST (N); made in house; host or cells: E. coli DH10B
T1 sequence (Q16539 whole entry): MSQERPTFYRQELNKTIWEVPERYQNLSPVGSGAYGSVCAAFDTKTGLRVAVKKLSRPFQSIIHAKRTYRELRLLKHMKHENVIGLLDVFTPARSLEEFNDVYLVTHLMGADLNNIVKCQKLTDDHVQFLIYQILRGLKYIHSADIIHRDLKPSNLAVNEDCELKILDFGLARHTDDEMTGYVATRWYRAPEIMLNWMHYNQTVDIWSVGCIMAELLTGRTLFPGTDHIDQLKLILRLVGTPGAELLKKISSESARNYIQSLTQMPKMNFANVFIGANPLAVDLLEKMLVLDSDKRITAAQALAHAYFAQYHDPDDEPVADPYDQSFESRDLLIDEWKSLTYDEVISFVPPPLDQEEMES
In words: p38 kinase in vitro assay, phosphorylation of biotinylated PHAS-I with gamma 32P-ATP. Type of experiment: biochemical. Conditions: @ 1.0 uM. How it is done:
The ability of compounds to inhibit human p38 kinase alpha was evaluated using two in vitro assay methods. In the first method activated human p38 kinase alpha phosphorylates a biotinylated substrate, PHAS-I (phosphorylated heat and acid stable protein-insulin inducible), in the presence of gamma ^32P-ATP (^32P-ATP). PHAS-I was biotinylated prior to the assay and provides a means of capturing the substrate which is phosphorylated during the assay. p38 Kinase was activated by MKK6. Compounds were tested in 10 fold serial dilutions over the range of 100 μM to 0.001 μM using 1% DMSO. Each concentration of inhibitor was tested in triplicate.
All reactions were carried out in 96 well polypropylene plates. Each reaction well contained 25 mM HEPES pH 7.5, 10 mM magnesium acetate and 50 μM unlabeled ATP. […] The reaction proceeded either for one hour or overnight at 30° C.
Following incubation, 20 μl of reaction mixture was transferred to a high capacity streptavidin coated filter plate (SAM-streptavidin-matrix, Promega) prewetted with phosphate buffered saline. […] Filter plates were air dried and 20 μl of scintillant was added. The plates were sealed and counted.
With `O=C(NCc1[nH]nc(-c2ccc(F)cc2)c1-c1ccncc1)c1cc(C(F)(F)F)ccc1F` [Example B-0050], the “P38 alpha kinase % inhib @ conc.” value turned out to be 73% @ 1.0 uM.
On the same count and under the same terms, the value for `O=C(NCc1[nH]nc(-c2ccc(F)cc2)c1-c1ccncc1)C1CCCN1C(=O)C(F)(F)F` (stereo not shown) [Example B-0094] was 96% @ 1.0 uM; that for `O=C(NCc1[nH]nc(-c2ccc(F)cc2)c1-c1ccncc1)c1cccc2ccccc12` [Example B-0037] was 91.0% @ 1.0 uM.
Same read-out and setting: in the case of `O=C(NCc1[nH]nc(-c2ccc(F)cc2)c1-c1ccncc1)c1ccc(OC(F)(F)F)cc1` [Example B-0028] it was 69.0% @ 1.0 uM; in that of `CCC(C(=O)NCc1[nH]nc(-c2ccc(F)cc2)c1-c1ccncc1)c1ccccc1` (stereo not shown) [Example B-0048], 94.0% @ 1.0 uM; in that of `O=C(CCC1CC=CC1)NCc1[nH]nc(-c2ccc(F)cc2)c1-c1ccncc1` [Example B-0038], 71.0% @ 1.0 uM.
`N#Cc1ccc(C(=O)NCc2[nH]nc(-c3ccc(F)cc3)c2-c2ccncc2)cc1` [Example B-0001]: the “P38 alpha kinase % inhib @ conc.” value is reported as 53.0% @ 1.0 uM.

The same experiment, now with this note: @ 1.0 uM; read-out: P38 alpha kinase % inhib @ conc.
As to `COc1cccc(C(=O)NCc2[nH]nc(-c3ccc(F)cc3)c2-c2ccncc2)c1` [Example B-0075], the inhibition at 1 µM turned out to be 91%.
Still for that read-out and setting: the value for `COc1ccc(S(=O)(=O)NCc2[nH]nc(-c3ccc(F)cc3)c2-c2ccncc2)cc1OC` [Example B-0131] was 43%; that for `O=S(=O)(NCc1[nH]nc(-c2ccc(F)cc2)c1-c1ccncc1)c1cccs1` [Example B-0121] was 79%.
As to `C=CCNC(=O)NCc1[nH]nc(-c2ccc(F)cc2)c1-c1ccncc1` [Example B-0170], the inhibition at 1 µM was determined as 43%.
As to `O=C(NCc1[nH]nc(-c2ccc(F)cc2)c1-c1ccncc1)c1cccc(F)c1` [Example B-0069], the inhibition at 1 µM was determined as 96%.
In the case of `COc1cc(OC)cc(C(=O)NCc2[nH]nc(-c3ccc(F)cc3)c2-c2ccncc2)c1` [Example B-0072], the inhibition at 1 µM is 77%.
For `O=C(NCc1ccccc1)NCc1[nH]nc(-c2ccc(F)cc2)c1-c1ccncc1` [Example B-0151], the inhibition at 1 µM is 43%.
As for `COC(=O)CC(=O)NCc1[nH]nc(-c2ccc(F)cc2)c1-c1ccncc1` [Example B-0091], the inhibition at 1 µM was found to be 96%.
With `O=S(=O)(NCc1[nH]nc(-c2ccc(F)cc2)c1-c1ccncc1)c1ccc(Cl)s1` [Example B-0144], the inhibition at 1 µM came out at 86%.
The same measure, in the same setting: in the case of `CC(C)[C@H]1CC[C@@H](C)C[C@@H]1OCC(=O)NCc1[nH]nc(-c2ccc(F)cc2)c1-c1ccncc1` [Example B-0084] it was 56%; in that of `O=S(=O)(NCc1[nH]nc(-c2ccc(F)cc2)c1-c1ccncc1)c1ccccc1F` [Example B-0133], 51%; in that of `O=C(NCc1[nH]nc(-c2ccc(F)cc2)c1-c1ccncc1)c1ccc(C(F)(F)F)cc1F` [Example B-0061], 62%.
On the same count and under the same terms, in the case of `C[C@@H](NC(=O)NCc1[nH]nc(-c2ccc(F)cc2)c1-c1ccncc1)c1ccccc1` [Example B-0176] it was 50%; in that of `COC(=O)c1ccc(C(=O)NCc2[nH]nc(-c3ccc(F)cc3)c2-c2ccncc2)cc1` [Example B-0082], 47%; in that of `O=C(NCc1[nH]nc(-c2ccc(F)cc2)c1-c1ccncc1)c1ccccc1F` [Example B-0074], 92%.

Staying with this experiment, now noted: @ 10.0 uM; read-out: P38 alpha kinase % inhib @ conc.
`COC(=O)c1ccccc1NC(=O)NCc1[nH]nc(-c2ccc(F)cc2)c1-c1ccncc1` [Example B-0158]: the inhibition at 10 µM turned out to be 58%.
As for `O=C(NCc1[nH]nc(-c2ccc(F)cc2)c1-c1ccncc1)Nc1cccc(Cl)c1Cl` [Example B-0192], the inhibition at 10 µM came to 12%.
The same measure, in the same setting: in the case of `CCOC(=O)C(C)NC(=O)NCc1[nH]nc(-c2ccc(F)cc2)c1-c1ccncc1` (stereo not shown) [Example B-0165] it was 70%.
For the molecule `CC(NC(=O)NCc1[nH]nc(-c2ccc(F)cc2)c1-c1ccncc1)c1cccc2ccccc12` (stereo not shown) [Example B-0184], the inhibition at 10 µM was 66%.
On to `CCOC(=O)C(NC(=O)NCc1[nH]nc(-c2ccc(F)cc2)c1-c1ccncc1)C(C)C` (stereo not shown) [Example B-0188], for which the inhibition at 10 µM came to 70%.
Same read-out and setting: in the case of `O=C(NCc1[nH]nc(-c2ccc(F)cc2)c1-c1ccncc1)Nc1cc(Cl)ccc1Cl` [Example B-0183] it was 12%; in that of `O=C(NCc1[nH]nc(-c2ccc(F)cc2)c1-c1ccncc1)Nc1ccc(Oc2ccccc2)cc1` [Example B-0155], 40%.
Take `O=C(NCc1[nH]nc(-c2ccc(F)cc2)c1-c1ccncc1)Nc1ccc(-c2ccccc2)cc1` [Example B-0180]: the inhibition at 10 µM was found to be 34%.

The experiment is the same for the next values; noted with them: p38α in vitro, PHAS-I assay procedure; read-out: p38^1 IC50.
Regarding `Fc1ccc(-c2n[nH]cc2-c2ccnc(NC3CCNCC3)c2)cc1` [Example A-277, 4-[3-(4-fluorophenyl)-1H-pyrazol-4-yl]-N-4-piperadinyl-2-pyridinamine], the concentration for half-maximal inhibition (IC50) (commonly the concentration at which inhibition is half-maximal) came out at 0.026 µM.
Still for that read-out and setting: the value for `Cn1cc(-c2ccnc(NCCO)c2)c(-c2ccc(F)cc2)n1` [Example A-281, 2-[[4-[3-(4-fluorophenyl)-1-methyl-1H-pyrazol-4-yl]-2-pyridinyl]amino]ethanol] was 0.053 µM; that for `Fc1ccc(CNc2cc(-c3cn(CCN4CCOCC4)nc3-c3ccc(F)cc3)ccn2)cc1` [Example A-285, N-[(4-fluorophenyl)methyl]-4-[3-(4-fluorophenyl)-1-[2-(4-morpholinyl)ethyl]-1H-pyrazol-4-yl]-2-pyridinamine] was under 0.1 µM.

Staying with this experiment, now noted: read-out: P38 alpha kinase IC50.
Regarding `Clc1ccc(-c2n[nH]c(C3CCNCC3)c2-c2ccncn2)cc1` [Example C-136], the IC50 turned out to be 0.032 µM.
Still for that read-out and setting: in the case of `CC1(C)C2CCC1(CS(=O)(=O)NCc1[nH]nc(-c3ccc(F)cc3)c1-c1ccncc1)C(=O)C2` (stereo not shown) [Example B-0227] it was 0.045 µM; in that of `C[C@@H](NC(=O)c1ccc(F)c(F)c1)c1[nH]nc(-c2ccc(F)cc2)c1-c1ccncc1` [Example B-0501], 0.049 µM.
As for `C[C@@H](NC(=O)c1ccc(Cl)cc1Cl)c1[nH]nc(-c2ccc(F)cc2)c1-c1ccncc1` [Example B-0516], the IC50 worked out at 0.37 µM.
Still for that read-out and setting: in the case of `O=S(=O)(NCc1[nH]nc(-c2ccc(F)cc2)c1-c1ccncc1)c1cc(Cl)ccc1Cl` [Example B-0229] it was under 0.1 µM; in that of `C[C@@H](NC(=O)NCCc1ccccc1)c1[nH]nc(-c2ccc(F)cc2)c1-c1ccncc1` [Example B-0416], 0.32 µM.
On to `COCC(=O)N[C@H](C)c1[nH]nc(-c2ccc(F)cc2)c1-c1ccncc1` [Example B-0366], for which the IC50 worked out at 0.7 µM.
In the case of `C[C@@H](NC(=O)C1CC1)c1[nH]nc(-c2ccc(F)cc2)c1-c1ccncc1` [Example B-0361], the IC50 came out at 0.33 µM.
In the case of `C[C@@H](NS(=O)(=O)c1cc(Cl)ccc1Cl)c1[nH]nc(-c2ccc(F)cc2)c1-c1ccncc1` [Example B-0438], the IC50 is under 0.1 µM.
For `C[C@@H](NS(=O)(=O)c1cc(S(=O)(=O)c2ccccc2)cs1)c1[nH]nc(-c2ccc(F)cc2)c1-c1ccncc1` [Example B-0484], the IC50 worked out at 0.28 µM.
With `CC(NS(=O)(=O)c1ccc(C(F)(F)F)cc1)c1[nH]nc(-c2ccc(F)cc2)c1-c1ccncc1` (stereo not shown) [Example B-0459], the IC50 came out at 0.099 µM.
For the molecule `CCCS(=O)(=O)N[C@H](C)c1[nH]nc(-c2ccc(F)cc2)c1-c1ccncc1` [Example B-0393], the IC50 came out at 0.043 µM.
Still for that read-out and setting: the value for `Cc1cccc(C(=O)NCc2[nH]nc(-c3ccc(F)cc3)c2-c2ccncc2)c1` [Example B-0290] was 0.66 µM.
With `COc1ccc(Cl)cc1S(=O)(=O)NC(C)c1[nH]nc(-c2ccc(F)cc2)c1-c1ccncc1` (stereo not shown) [Example B-0655], the IC50 was 1.25 µM.
In the case of `Cc1ccc(C)c(S(=O)(=O)NCc2[nH]nc(-c3ccc(F)cc3)c2-c2ccncc2)c1` [Example B-0244], the 50% inhibitory concentration (IC50) is 0.02 µM.
With `COc1ccc(S(=O)(=O)N[C@H](C)c2[nH]nc(-c3ccc(F)cc3)c2-c2ccncc2)cc1` [Example B-0397], the IC50 stood at 0.17 µM.
Consider `COc1ccc(NC(=O)N[C@H](C)c2[nH]nc(-c3ccc(F)cc3)c2-c2ccncc2)cc1` [Example B-0419], for which the IC50 worked out at 0.85 µM.
Turning to `N#Cc1ccc(S(=O)(=O)NCc2[nH]nc(-c3ccc(F)cc3)c2-c2ccncc2)cc1` [Example B-0254], the IC50 was 0.12 µM.
On to `O=C(NCc1[nH]nc(-c2ccc(F)cc2)c1-c1ccncc1)c1cccc(F)c1` [Example B-0292], for which the 50% inhibitory concentration (IC50) turned out to be 0.22 µM.
As to `O=C(NCc1[nH]nc(-c2ccc(F)cc2)c1-c1ccncc1)c1cccc(F)c1F` [Example B-0293], the IC50 stood at 0.66 µM.
`C[C@@H](NC(=O)c1ccncc1)c1[nH]nc(-c2ccc(F)cc2)c1-c1ccncc1` [Example B-0378]: the IC50 amounted to 1.1 µM.
Still for that read-out and setting: the value for `CC(NC(=O)c1ccc(F)cc1C(F)(F)F)c1[nH]nc(-c2ccc(F)cc2)c1-c1ccncc1` (stereo not shown) [Example B-0688] was 0.66 µM.
For the molecule `COc1ccc(CC(=O)N[C@H](C)c2[nH]nc(-c3ccc(F)cc3)c2-c2ccncc2)cc1OC` [Example B-0371], the IC50 is 0.49 µM.
As for `CC(NC(=O)c1cc(F)cc(F)c1)c1[nH]nc(-c2ccc(F)cc2)c1-c1ccncc1` (stereo not shown) [Example B-0679], the IC50 worked out at 0.062 µM.
As for `O=C(NCCCc1[nH]nc(-c2ccc(F)cc2)c1-c1ccncc1)c1ccccc1Br` [Example B-1355], the IC50 was found to be 0.7 µM.
